According to article PMC6993587, “Detection of EXP1-Specific CD4+ T Cell Responses Directed Against a Broad Range of Epitopes Including Two Promiscuous MHC Class II Binders During Acute Plasmodium falciparum Malaria” (Frontiers in Immunology, 2020):

Tested on: CD8+ T cells (PBMCs of malaria patients)
Test: EXP1-specific CD8+ T cell response, ICS for IFNγ after in vitro culture
Format: cell-based, human
Details: patients HH-16, HH-18, HH-20 and HH-25; coincided with a CD4+ T cell response against the same peptide
Method: Cryopreserved PBMCs were thawed and cultivated at 1–5 × 10^6 cells/ml for optimal results in 500 μl of R10 medium (RPMI 1640 medium with 10% FCS (Sigma Aldrich), 1% HEPES buffer and 1% Penicillin-Streptomycin). PBMCs were stimulated with EXP1 peptide pool 1 [EXP1 peptide 1-10 (EXP1-P01-10)], pool 2 (EXP1-P11-20) or pool 3 (EXP1-P21-31) (Table 2) at a final concentration of 10 μg/ml, together with 1 μg/ml of anti-CD28 and anti-CD49d antibodies [BD FastImmune™, clone: L293 (CD28) and clone: L25 (CD49d)] for 14 days. Medium with recombinant IL-2 (50 U/ml) was added when necessary. After 14 days, cells were re-stimulated with single EXP1-peptides (final concentration 10 μg/ml) and then assayed for interferon-γ (IFNγ) production by ELISPOT and intracellular cytokine staining (ICS) as previously described ([28]).
ICS was performed as previously described ([26], [28]). 5 × 10^5 PBMCs were stimulated with the corresponding EXP1 peptide at a final concentration of 10 μg/ml before blocking the secretion with 10 μg/ml Brefeldin A (Sigma Aldrich) 1 h after stimulation. […] Cells were then analyzed on a BD LSRFortessa (BD Bioscience). […]

Sequence: KKGSGEPLIDVHDLI [EXP1-P09, overlapping peptide of P. falciparum EXP1, aa 40–54]
- CD8+ T cell response: CD8+ T cell response
